{"source": "patent US20180125835A1", "about": "“Dosage and Use of an A2A Antagonist” (H. Lundbeck A/S, priority 2014, published 2018)", "key": {"A1 receptor [1]": {"molecular_target": "T1, A1 receptor (Canis lupus familiaris, UniProt P11616)", "T1 sequence (P11616 1-326)": "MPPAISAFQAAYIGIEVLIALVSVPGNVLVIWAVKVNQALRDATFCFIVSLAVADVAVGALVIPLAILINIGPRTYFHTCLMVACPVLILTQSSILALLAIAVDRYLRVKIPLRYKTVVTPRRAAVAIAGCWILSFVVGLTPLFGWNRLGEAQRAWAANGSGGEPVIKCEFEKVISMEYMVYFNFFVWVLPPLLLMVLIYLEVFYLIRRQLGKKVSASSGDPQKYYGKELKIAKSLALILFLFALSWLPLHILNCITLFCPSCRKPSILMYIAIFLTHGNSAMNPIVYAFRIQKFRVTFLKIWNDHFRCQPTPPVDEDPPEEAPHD", "assay": "Adenosine receptor binding affinity, dog A1"}, "A2A receptor [2]": {"molecular_target": "A2A receptor (Canis lupus familiaris, UniProt P11617)", "sequence (P11617 whole entry)": "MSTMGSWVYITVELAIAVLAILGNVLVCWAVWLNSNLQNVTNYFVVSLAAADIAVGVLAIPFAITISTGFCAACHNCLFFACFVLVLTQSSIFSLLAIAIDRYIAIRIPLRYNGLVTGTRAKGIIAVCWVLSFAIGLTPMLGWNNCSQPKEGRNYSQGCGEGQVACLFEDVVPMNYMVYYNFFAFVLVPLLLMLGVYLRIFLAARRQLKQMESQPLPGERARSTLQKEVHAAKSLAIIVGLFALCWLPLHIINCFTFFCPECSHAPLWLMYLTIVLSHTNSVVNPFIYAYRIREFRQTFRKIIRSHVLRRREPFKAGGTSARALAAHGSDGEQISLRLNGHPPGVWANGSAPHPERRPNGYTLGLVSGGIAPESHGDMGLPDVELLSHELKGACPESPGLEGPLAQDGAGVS", "assay": "Adenosine receptor binding affinity, dog A2A"}, "A1 receptor [3]": {"molecular_target": "T2, A1 receptor (Mus musculus, UniProt Q60612)", "T2 sequence (Q60612 1-326)": "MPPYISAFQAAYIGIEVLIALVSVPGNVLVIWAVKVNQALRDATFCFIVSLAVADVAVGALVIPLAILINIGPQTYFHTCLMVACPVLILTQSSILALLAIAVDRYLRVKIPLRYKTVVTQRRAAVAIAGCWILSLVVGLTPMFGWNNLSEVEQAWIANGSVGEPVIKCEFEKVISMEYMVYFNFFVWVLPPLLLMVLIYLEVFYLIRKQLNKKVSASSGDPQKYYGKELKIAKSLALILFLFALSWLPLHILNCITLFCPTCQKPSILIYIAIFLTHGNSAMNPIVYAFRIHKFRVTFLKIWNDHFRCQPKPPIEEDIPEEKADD", "assay": "Adenosine receptor binding affinity, mouse A1"}, "A2A receptor [4]": {"molecular_target": "A2A receptor (Mus musculus, UniProt Q60613)", "sequence (Q60613 whole entry)": "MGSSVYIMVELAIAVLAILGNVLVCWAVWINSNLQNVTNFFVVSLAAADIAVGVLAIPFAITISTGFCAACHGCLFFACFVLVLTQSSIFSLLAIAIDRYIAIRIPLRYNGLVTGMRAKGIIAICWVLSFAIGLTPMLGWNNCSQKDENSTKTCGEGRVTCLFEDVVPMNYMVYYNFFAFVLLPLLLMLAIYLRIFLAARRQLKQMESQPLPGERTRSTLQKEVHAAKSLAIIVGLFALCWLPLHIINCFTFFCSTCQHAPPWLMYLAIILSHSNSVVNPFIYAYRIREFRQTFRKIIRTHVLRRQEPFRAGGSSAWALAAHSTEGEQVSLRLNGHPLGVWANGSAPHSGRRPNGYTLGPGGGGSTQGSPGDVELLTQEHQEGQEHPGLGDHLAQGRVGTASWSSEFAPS", "assay": "Adenosine receptor binding affinity, mouse A2A"}, "[5]": {"tested_on": "57 counter-screen targets (receptors, ion channels and transporters)", "assay": "Counter-screen binding panel of CNS targets"}, "[6]": {"assay": "PET study, pharmacokinetic assessments", "type": "in vivo", "details": "human, plasma, single oral doses 0.5 to 5 mg", "text": "The pharmacokinetic parameters of compound 504 were estimated using non-compartmental analysis."}, "[7]": {"assay": "Plasma exposure in Long Evans rats", "type": "in vivo", "details": "rat", "procedure": "A minimum of 400 μL of whole blood was collected via saphenous bleed at 10 min, 20 min, 60 min, and 120 min post drug administration, i.e. at time points that coincided with the activity study (and phase 2: 5-choice experiments). Blood was collected and transferred into K3 EDTA tubes. The tubes were allowed to sit at room temperature for approximately 2 minutes and placed on wet ice until centrifugation. Blood was spun in the centrifuge with speed of 3,500 rpm for 15 minutes at 4° C. Plasma was separated and placed into a labeled 0.75 ml Matrix tube and capped. Plasma tubes were placed into a Matrix rack and stored in a −80° C. freezer. At the final time point (120 minutes post drug administration) following blood collection by cardiac puncture, the brain tissue was extracted and hemisected along the midline. One hemisphere, without the cerebellum, was placed in the 15 ml pre-weighed brain tube while the other portion was disposed. The brain tubes were weighed, frozen on dry ice, and stored at −80 C. Brain tissue and plasma samples were shipped on dry ice to Sponsor. Blood and brain levels of compound 504 were to be conducted by the Sponsor."}, "Long Evans rats": {"tested_on": "Long Evans rats", "assay": "5-choice serial reaction time task (5-CSRTT)", "type": "in vivo, rat", "text": "(A) Testing under standard conditions, i.e. equivalent to final conditions to which the animals were trained, i.e. stimulus duration (SD) 0.75 seconds (s), inter-trial interval (ITI) 5 s, 100 trials. The purpose of this condition being to measure drug effect on performance under standard conditions. (B) Testing under conditions of extended (long) ITI, i.e. low event rate, SD 0.3 s, ITI 5, 7.5, 10 s, 120 trials. The purpose of this condition being to measure drug effect on performance under lower event rate requiring the animal to delay its responding. (C) Testing under conditions of short ITI, i.e. high event rate, SD 0.3 s, ITI 3, 4, 5 s, 120 trials. The purpose of this condition to measure drug effect on performance under high event rate requiring the animal to rapidly process sensory information. (D) Testing under conditions of extended trials, i.e. SD 0.3 s, ITI 5 s, 250 trials. The purpose of this condition to measure drug effect on performance under extended trials, testing sustained attention or vigilance.\nSixteen (16) experimentally naïve, male Long Evans rats were trained to asymptotic performance in the 5-CSRTT over a period of approximately 2-3 months. The rats were trained to final stimulus duration (SD) of 0.75 s, 5 s inter-trial interval (ITI), 5 s limited hold (LH), 100 trials per session. Target performance levels under these conditions was in the range of >80% accuracy and <20% omissions.\nOnce the group of animals were trained, multiple drug studies according to various experimental tasks (see table 2 below) was tested in the same cohort of rats. […] The study design was made up of 4 experiments, with each experiment 2-3 weeks in duration and a 1 week intervening period between each experiment."}, "A2A receptor [8]": {"molecular_target": "A2A receptor (Homo sapiens, UniProt P29274)", "sequence (P29274 whole entry)": "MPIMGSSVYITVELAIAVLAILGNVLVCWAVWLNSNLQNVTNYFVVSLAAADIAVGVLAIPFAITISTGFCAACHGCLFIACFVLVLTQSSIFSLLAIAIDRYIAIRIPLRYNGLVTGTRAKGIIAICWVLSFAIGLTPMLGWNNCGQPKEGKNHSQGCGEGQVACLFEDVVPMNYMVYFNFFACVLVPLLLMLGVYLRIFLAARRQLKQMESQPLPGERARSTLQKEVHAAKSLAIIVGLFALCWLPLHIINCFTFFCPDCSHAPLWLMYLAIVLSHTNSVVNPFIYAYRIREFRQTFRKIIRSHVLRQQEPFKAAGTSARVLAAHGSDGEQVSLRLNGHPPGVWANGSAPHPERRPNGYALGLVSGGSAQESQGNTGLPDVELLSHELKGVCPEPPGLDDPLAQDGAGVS", "assay": "biochemical"}, "[9]": {"assay": "Safety and tolerability study, adverse events (Parts A, B, C)", "method": "The study was conducted in three parts: Parts A, B, and C.\nParts A and B were single-dose escalations to determine the safety and tolerability in young healthy men, and in elderly men and women, respectively. Three doses (Cohorts A1 to A3) were tested in healthy young men: 1 mg (N=6), 5 mg (N=6), and 10 mg (N=5); placebo (N=8, total of the three cohorts). […] Two doses (Cohorts B1 and B2) were tested in healthy elderly men and women: 5 mg (N=9 men/4 women), 10 mg (N=4 men/4 women); placebo (N=6 men/4 women, total of the three cohorts). […] A washout period of at least 7 days separated each dose administration."}, "[10]": {"details": "Part A, healthy young men, 1, 5 and 10 mg dose groups"}, "[11]": {"details": "Part B, healthy elderly, 5 and 10 mg dose groups"}, "[12]": {"details": "Part C, 5 mg on three occasions"}}, "data": [{"smiles": "Cc1ccc(C(=O)Nc2nc(-c3ccco3)c(C(=O)C3CCOCC3)s2)cn1", "note": "[Compound 504]", "values": [{"measurement": "Ki", "setting": "A1 receptor [1]", "result": "450 ± 51.1", "unit": "nM"}, {"measurement": "Ki", "setting": "A2A receptor [2]", "result": "0.283 ± 0.0269", "unit": "nM"}, {"measurement": "Ki", "setting": "A1 receptor [3]", "result": "31.1 ± 1.09", "unit": "nM"}, {"measurement": "Ki", "setting": "A2A receptor [4]", "result": "0.322 ± 0.0114", "unit": "nM"}, {"measurement": "affinity for other receptors, ion channels and transporters", "setting": "[5]; DA, 5-HT, Ach, GABA, Glu, opiates, cannabinoid, calcium, potassium channels, transporters", "result": "Little or no affinity"}, {"measurement": "inhibition of binding", "setting": "[5]; at 10 μM, any of the 57 counter-screen targets", "result": "Less than 50%"}, {"measurement": "Tmax", "setting": "[6]", "result": "1 to 2", "unit": "h"}, {"measurement": "plasma concentrations", "setting": "[7]; oral 0.01-0.1 mg/kg", "result": "100 to 450", "unit": "ng/mL"}, {"measurement": "plasma levels", "setting": "[7]; oral 0.03-0.1 mg/kg, 60 min and 90 min sampling", "result": "150 to 400", "unit": "ng/mL"}, {"measurement": "correct trials completed by all rats in Bin 5", "setting": "Long Evans rats; extended 250 trials, 0.1 mg/kg", "result": "at least 13"}, {"measurement": "decline in % correct and number of correct responses, increase in omissions over Bins 4 and 5", "setting": "Long Evans rats; extended 250 trials, 0.03-0.1 mg/kg oral, particularly 0.06-0.1 mg/kg", "result": "protected against the decline"}, {"measurement": "premature responses", "setting": "Long Evans rats; long ITI, 0.06 mg/kg oral", "result": "increased"}, {"measurement": "accuracy under long ITI", "setting": "Long Evans rats; long ITI, 0.06 mg/kg oral, P=0.09", "result": "non-significant trend of compound 504 to reduce accuracy"}, {"measurement": "performance in terms of choice accuracy", "setting": "Long Evans rats; short ITI, 0.03-0.06 mg/kg oral, particularly at 3 s ITI", "result": "improved performance"}, {"measurement": "% correct, # incorrect responses, omissions, premature responses", "setting": "Long Evans rats; short ITI, averaged over the multiple ITI", "result": "improving performance on each measure"}, {"measurement": "other measures (% correct, # correct/incorrect responses, omissions, magazine latency)", "setting": "Long Evans rats; standard conditions", "result": "unaffected"}, {"measurement": "speed of responding (correct latency)", "setting": "Long Evans rats; standard conditions, doses 0.03-0.1 mg/kg oral", "result": "significantly increased speed of responding"}, {"measurement": "premature responding", "setting": "Long Evans rats; standard conditions, significant only at 0.1 mg/kg", "result": "increased premature responding"}, {"measurement": "Ki", "setting": "A2A receptor [8]", "result": "0.118 ± 0.0023", "unit": "nM"}, {"measurement": "insomnia", "setting": "[9]; Part A, 1 mg group", "result": "not reported"}, {"measurement": "subjects reporting insomnia", "setting": "[9]; Part A, 5 mg group (N=6)", "result": 4, "unit": "subjects"}, {"measurement": "subjects reporting insomnia", "setting": "[9]; Part A, 10 mg group (N=5)", "result": 5, "unit": "subjects"}, {"measurement": "number of AEs", "setting": "[9]; [10]", "result": 36}, {"measurement": "subjects with AEs", "setting": "[9]; [10]", "result": "13 of the 17"}, {"measurement": "number of severe adverse events", "setting": "[9]; Part B, 10 mg group", "result": 5}, {"measurement": "subjects with severe adverse events", "setting": "[9]; Part B, 10 mg group", "result": "Three"}, {"measurement": "dose considered to approach the maximum tolerated dose", "setting": "[9]; Part B, elderly subjects", "result": "~10", "unit": "mg"}, {"measurement": "number of AEs", "setting": "[9]; [11]", "result": 53}, {"measurement": "subjects with AEs", "setting": "[9]; [11]", "result": "16 of the 21"}, {"measurement": "events of mild insomnia", "setting": "[9]; Part C", "result": 12}, {"measurement": "events of moderate insomnia", "setting": "[9]; Part C", "result": 2}, {"measurement": "number of moderate AEs", "setting": "[9]; Part C", "result": 15}, {"measurement": "number of severe AEs", "setting": "[9]; Part C", "result": 3}, {"measurement": "number of AEs", "setting": "[9]; [12]", "result": 90}, {"measurement": "subjects with AEs", "setting": "[9]; [12]", "result": "11 of the 12"}, {"measurement": "safety and tolerability", "setting": "[9]; Part C, 5 mg single doses, fed and fasting states", "result": "safe and tolerated"}, {"measurement": "maximal tolerated dosage", "setting": "[9]; single dose, insomnia limiting", "result": 10, "unit": "mg"}]}]}
